Values quoted from earlier work in article PMC11756063, “The fibronectin-targeting PEG-FUD imaging probe shows enhanced uptake during fibrogenesis in experimental lung fibrosis” (Respiratory Research, 2025).

System: fibrotic mouse lung
Conditions: ref [9], [13], [65]
From the text: This study has potential impact for the field of molecular imaging of lung fibrosis, as methods that permit more precise and intricate assessment of disease progression are needed in clinical practice. In pulmonary fibrosis, potential molecular imaging targets being developed represent various disease mechanisms, such as activity of pathogenic fibroblasts and macrophages, ECM deposition, as well as detection of pro-fibrotic integrins.

OC[C@H]1OC(O)[C@H]([18F])[C@@H](O)[C@@H]1O (stereo partly shown) [[^18F]FDG, [^18F]-fluorodeoxyglucose]
pattern of uptake over the bleomycin model: peak uptake in the early phase of the bleomycin model that decline during the established phase
